# Assay: Preparation of solubilizates: content of solubilized active ingredient, measured photometrically
# Assay type: physicochemical
# Settings: pH 7
# Protocol: 2 g of the copolymer were weighed into a beaker. Then, one medicament in each case was weighed into the mixture as follows in order to obtain a supersaturated solution. (If the weighed-in mass dissolved in the medium, the initial weight was increased until a sediment formed). […] Phosphate buffer pH 7.0 was then added until solubilizer and phosphate buffer were present in the weight ratio 1:9. […] There then followed a resting time of at least one hour. Following filtration of the mixture, it was measured photometrically and the content of active ingredient was determined.
"content of solubilized active ingredient, Carbamazepine [g/100 ml]","content of solubilized active ingredient, Piroxicam [g/100 ml]",Substance
0.21,0.50,copolymers of N-vinylpyrrolidone/N-vinylcaprolactam/VEOVA 10 (weight ratio 70/20/10) [Example 4]
0.17,0.54,copolymers of N-vinylpyrrolidone/VEOVA 9 (weight ratio 80/20) [Example 2]
0.19,0.48,copolymers of N-vinylpyrrolidone/VEOVA 9 (weight ratio 90/10) [Example 3]
